Experimental data from ChEMBL document CHEMBL4665750, “Structure-Activity Relationship Study of Majusculamides A and B and Their Analogues on Osteogenic Activity” (J Nat Prod, 2020).
The source made the active and inactive calls. The calls are words filed in the database; no cut-off is given here.

These compounds were tested on MC3T3-E1 (assay: Osteogenic activity in mouse MC3T3-E1 cells assessed as mineralization at 30 uM after 6 days by Alizarin Red S staining-based method). Details: time 6.0 day.
Format: functional, cell-based

| Compound | Activity |
| --- | --- |
| CCCC(=O)[C@@H](C)C(=O)N(C)[C@H](Cc1ccc(OC)cc1)C(=O)N(C)[C@H](C(N)=O)C(C)C | inactive |
| CCCCCCC[C@@H](O)[C@H](C)C(=O)N(C)[C@H](Cc1ccc(OC)cc1)C(=O)N(C)[C@H](C(N)=O)C(C)C | Active |
| CCCCCCC[C@H](O)[C@@H](C)C(=O)N(C)[C@H](Cc1ccc(OC)cc1)C(=O)N(C)[C@H](C(N)=O)C(C)C | inactive |
| CCCCCCCC(=O)[C@@H](C)C(=O)N(C)[C@H](Cc1ccc(OC)cc1)C(=O)N(C)[C@@H](C)C(N)=O | inactive |
| CCCCCCCC(=O)[C@@H](C)C(=O)N(C)[C@H](Cc1cc(Cl)c(OC)c(Cl)c1)C(=O)N(C)[C@H](C(N)=O)C(C)C | inactive |
| CCCCCCCC[C@H](C)C(=O)N(C)[C@H](Cc1ccc(OC)cc1)C(=O)N(C)[C@H](C(N)=O)C(C)C | Active |
| CCCCCC(=O)[C@@H](C)C(=O)N(C)[C@H](Cc1ccc(OC)cc1)C(=O)N(C)[C@H](C(N)=O)C(C)C | inactive |
| CCCCCCCC[C@@H](C)C(=O)N(C)[C@H](Cc1ccc(OC)cc1)C(=O)N(C)[C@H](C(N)=O)C(C)C | Active |

The compounds below were run on MC3T3-E1 (assay: Osteogenic activity in mouse MC3T3-E1 cells assessed as mineralization at >= 30 uM after 6 days by Alizarin Red S staining-based method). Details: dose microM >=30, time 6.0 day.
Format: functional, cell-based

| Compound | Activity |
| --- | --- |
| CCCCCCCC(=O)[C@@H](C)C(=O)N(C)[C@H](Cc1ccc(OC)cc1)C(=O)N(C)[C@H](C(N)=O)C(C)C | Active |
| CCCCCCCC[C@H](C)C(=O)N(C)[C@H](Cc1ccc(OC)cc1)C(=O)N(C)[C@H](C(N)=O)C(C)C | inactive |
| CCCCCCCC(=O)[C@H](C)C(=O)N(C)[C@H](Cc1ccc(OC)cc1)C(=O)N(C)[C@H](C(N)=O)C(C)C | Active |
| CCCCCCCCCC(=O)N(C)[C@H](Cc1ccc(OC)cc1)C(=O)N(C)[C@H](C(N)=O)C(C)C | Active |
| CCCCCCCC(=O)CC(=O)N(C)[C@H](Cc1ccc(OC)cc1)C(=O)N(C)[C@H](C(N)=O)C(C)C | inactive |
| CCCCCCCC(=O)[C@@H](C)C(=O)N(C)[C@H](Cc1ccccc1)C(=O)N(C)[C@H](C(N)=O)C(C)C | inactive |
| CCCCCCCC[C@@H](C)C(=O)N(C)[C@H](Cc1ccc(OC)cc1)C(=O)N(C)[C@H](C(N)=O)C(C)C | inactive |
| CCCCCCCC(=O)C(C)(C)C(=O)N(C)[C@H](Cc1ccc(OC)cc1)C(=O)N(C)[C@H](C(N)=O)C(C)C | inactive |

What follows are compounds tested on MC3T3-E1 (assay: Osteogenic activity in mouse MC3T3-E1 cells assessed as mineralization at 7.5 uM after 6 days by Alizarin Red S staining-based method). Details: time 6.0 day.
Format: functional, cell-based

| Compound | Activity |
| --- | --- |
| CCCCCCCC(=O)[C@@H](C)C(=O)N(C)[C@H](Cc1ccc(OC)cc1)C(=O)N(C)[C@@H](C)C(N)=O | Active |

What follows are compounds tested on MC3T3-E1 (assay: Activation of alkaline phosphatase secretion in mouse MC3T3-E1 cells at >= 30 uM using 4-nitrophenyl phosphate as substrate after 6 days). Details: dose microM >=30, time 6.0 day.
Format: cell-based

| Compound | Activity |
| --- | --- |
| CCCCCCCC[C@H](C)C(=O)N(C)[C@H](Cc1ccc(OC)cc1)C(=O)N(C)[C@H](C(N)=O)C(C)C | inactive |
| CCCCCCCC[C@@H](C)C(=O)N(C)[C@H](Cc1ccc(OC)cc1)C(=O)N(C)[C@H](C(N)=O)C(C)C | inactive |

Same assay, conditions: filed as activator, dose microM >=30, time 6.0 day

| Compound | Activity |
| --- | --- |
| CCCCCCCC(=O)[C@@H](C)C(=O)N(C)[C@H](Cc1ccc(OC)cc1)C(=O)N(C)[C@@H](C)C(N)=O | Active |
| CCCCCCCC(=O)[C@@H](C)C(=O)N(C)[C@H](Cc1ccc(OC)cc1)C(=O)N(C)[C@H](C(N)=O)C(C)C | Active |
| CCCCCCCC(=O)[C@H](C)C(=O)N(C)[C@H](Cc1ccc(OC)cc1)C(=O)N(C)[C@H](C(N)=O)C(C)C | Active |
| CCCCCCCCCC(=O)N(C)[C@H](Cc1ccc(OC)cc1)C(=O)N(C)[C@H](C(N)=O)C(C)C | Active |
| CCCCCCCC(=O)CC(=O)N(C)[C@H](Cc1ccc(OC)cc1)C(=O)N(C)[C@H](C(N)=O)C(C)C | Active |
| CCCCCCCC(=O)[C@@H](C)C(=O)N(C)[C@H](Cc1ccccc1)C(=O)N(C)[C@H](C(N)=O)C(C)C | Active |
| CCCCCCCC(=O)C(C)(C)C(=O)N(C)[C@H](Cc1ccc(OC)cc1)C(=O)N(C)[C@H](C(N)=O)C(C)C | Active |

The compounds below were run on MC3T3-E1 (assay: Cytotoxicity against mouse MC3T3-E1 cells assessed as reduction in cell viability at >= 30 uM after 6 days by MTT assay). Details: mc3t3-e1, 144 h, time 6 day.
Format: cell-based

| Compound | Activity |
| --- | --- |
| CCCCCCCC(=O)[C@@H](C)C(=O)N(C)[C@H](Cc1ccc(OC)cc1)C(=O)N(C)[C@H](C(N)=O)C(C)C | Non-Toxic |
| CCCCCCCC(=O)[C@H](C)C(=O)N(C)[C@H](Cc1ccc(OC)cc1)C(=O)N(C)[C@H](C(N)=O)C(C)C | Non-Toxic |

Each compound was assayed on MC3T3-E1 (assay: Osteogenic activity in mouse MC3T3-E1 cells assessed as mineralization at 15 uM after 6 days by Alizarin Red S staining-based method). Details: time 6.0 day.
Format: functional, cell-based

| Compound | Activity |
| --- | --- |
| CCCCCCCC(=O)[C@@H](C)C(=O)N(C)[C@H](Cc1ccc(OC)cc1)C(=O)N(C)[C@@H](C)C(N)=O | Active |
| CCCCCCCCCC(=O)[C@@H](C)C(=O)N(C)[C@H](Cc1ccc(OC)cc1)C(=O)N(C)[C@H](C(N)=O)C(C)C | inactive |

These compounds were tested on MC3T3-E1 (assay: Activation of alkaline phosphatase secretion in mouse MC3T3-E1 cells at 15 uM using 4-nitrophenyl phosphate as substrate after 6 days). Details: filed as activator, time 6.0 day.
Format: cell-based

| Compound | Activity |
| --- | --- |
| CCCCCCCCCC(=O)[C@@H](C)C(=O)N(C)[C@H](Cc1ccc(OC)cc1)C(=O)N(C)[C@H](C(N)=O)C(C)C | Active |

These compounds were tested on MC3T3-E1 (assay: Cytotoxicity against mouse MC3T3-E1 cells assessed as reduction in cell viability at 30 uM after 6 days by MTT assay). Details: mc3t3-e1, 144 h, time 6 day.
Format: cell-based

| Compound | Activity |
| --- | --- |
| CCCCCCCCCC(=O)[C@@H](C)C(=O)N(C)[C@H](Cc1ccc(OC)cc1)C(=O)N(C)[C@H](C(N)=O)C(C)C | Toxic |
| CCCCCCCC(=O)[C@@H](C)C(=O)N(C)[C@H](Cc1cc(Cl)c(OC)c(Cl)c1)C(=O)N(C)[C@H](C(N)=O)C(C)C | Toxic |
| CCCCCCCCCC(=O)N(C)[C@H](Cc1ccc(OC)cc1)C(=O)N(C)[C@H](C(N)=O)C(C)C | Toxic |

The compounds below were run on MC3T3-E1 (assay: Activation of alkaline phosphatase secretion in mouse MC3T3-E1 cells at 30 uM using 4-nitrophenyl phosphate as substrate after 6 days). Details: filed as activator, time 6.0 day.
Format: cell-based

| Compound | Activity |
| --- | --- |
| CCCC(=O)[C@@H](C)C(=O)N(C)[C@H](Cc1ccc(OC)cc1)C(=O)N(C)[C@H](C(N)=O)C(C)C | Active |
| CCCCCCC[C@@H](O)[C@H](C)C(=O)N(C)[C@H](Cc1ccc(OC)cc1)C(=O)N(C)[C@H](C(N)=O)C(C)C | Active |
| CCCCCCC[C@H](O)[C@@H](C)C(=O)N(C)[C@H](Cc1ccc(OC)cc1)C(=O)N(C)[C@H](C(N)=O)C(C)C | Active |
| CCCCCC(=O)[C@@H](C)C(=O)N(C)[C@H](Cc1ccc(OC)cc1)C(=O)N(C)[C@H](C(N)=O)C(C)C | Active |

Same assay, conditions: time 6.0 day

| Compound | Activity |
| --- | --- |
| CCCCCCCC(=O)[C@@H](C)C(=O)N(C)[C@H](Cc1cc(Cl)c(OC)c(Cl)c1)C(=O)N(C)[C@H](C(N)=O)C(C)C | inactive |
